Data as given in ChEMBL document CHEMBL1156730, “Structure-activity relationships of new inhibitors of breast cancer resistance protein (ABCG2)” (Bioorg Med Chem, 2008).

Key:
Assay type in all cases: cell-based; call rule not given here
[1] = molecular target: T1, Broad substrate specificity ATP-binding cassette transporter ABCG2 (Homo sapiens, UniProt Q9UNQ0); assay: Inhibition of ABCG2 in human mitoxantrone-resistant MCF7 cells by Hoechst 33342 assay
T1 sequence (Q9UNQ0 whole entry): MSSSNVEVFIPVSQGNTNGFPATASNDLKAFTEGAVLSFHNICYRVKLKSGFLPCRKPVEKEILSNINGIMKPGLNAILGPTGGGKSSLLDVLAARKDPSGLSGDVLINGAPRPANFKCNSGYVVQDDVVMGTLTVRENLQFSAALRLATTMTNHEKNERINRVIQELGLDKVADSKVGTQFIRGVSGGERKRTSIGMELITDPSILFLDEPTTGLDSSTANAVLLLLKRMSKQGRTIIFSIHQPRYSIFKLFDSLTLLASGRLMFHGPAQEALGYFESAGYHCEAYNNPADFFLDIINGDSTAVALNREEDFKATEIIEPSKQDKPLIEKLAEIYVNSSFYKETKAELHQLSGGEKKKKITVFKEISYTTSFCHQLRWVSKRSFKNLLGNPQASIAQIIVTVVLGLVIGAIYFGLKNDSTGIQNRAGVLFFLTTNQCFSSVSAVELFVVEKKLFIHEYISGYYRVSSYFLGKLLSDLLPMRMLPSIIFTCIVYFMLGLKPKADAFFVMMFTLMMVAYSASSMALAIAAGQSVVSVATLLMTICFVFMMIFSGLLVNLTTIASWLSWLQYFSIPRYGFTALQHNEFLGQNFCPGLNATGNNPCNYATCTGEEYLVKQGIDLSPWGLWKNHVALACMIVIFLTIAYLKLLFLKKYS

[2] = molecular target: ATP-dependent translocase ABCB1 (Homo sapiens, UniProt P08183); assay: Inhibition of P-gp in human adriamycin-resistant A2780 cells by Hoechst 33342 assay
[3] = molecular target: T1, Broad substrate specificity ATP-binding cassette transporter ABCG2; assay: Inhibition of ABCG2 in human mitoxantrone-resistant MCF7 cells by Hoechst 33342 assay using one phase exponential association analysis
[4] = molecular target: T1, Broad substrate specificity ATP-binding cassette transporter ABCG2; assay: Inhibition of ABCG2 in human mitoxantrone-resistant MCF7 cells by Hoechst 33342 assay using linear regression analysis
[5] = molecular target: T1, Broad substrate specificity ATP-binding cassette transporter ABCG2; assay: Inhibition of ABCG2 in human mitoxantrone-resistant MCF7 cells at 5.6 uM by Hoechst 33342 assay; details: mcf7, 5.6 µM

Chain of ATP-dependent translocase ABCB1 (P08183 whole entry): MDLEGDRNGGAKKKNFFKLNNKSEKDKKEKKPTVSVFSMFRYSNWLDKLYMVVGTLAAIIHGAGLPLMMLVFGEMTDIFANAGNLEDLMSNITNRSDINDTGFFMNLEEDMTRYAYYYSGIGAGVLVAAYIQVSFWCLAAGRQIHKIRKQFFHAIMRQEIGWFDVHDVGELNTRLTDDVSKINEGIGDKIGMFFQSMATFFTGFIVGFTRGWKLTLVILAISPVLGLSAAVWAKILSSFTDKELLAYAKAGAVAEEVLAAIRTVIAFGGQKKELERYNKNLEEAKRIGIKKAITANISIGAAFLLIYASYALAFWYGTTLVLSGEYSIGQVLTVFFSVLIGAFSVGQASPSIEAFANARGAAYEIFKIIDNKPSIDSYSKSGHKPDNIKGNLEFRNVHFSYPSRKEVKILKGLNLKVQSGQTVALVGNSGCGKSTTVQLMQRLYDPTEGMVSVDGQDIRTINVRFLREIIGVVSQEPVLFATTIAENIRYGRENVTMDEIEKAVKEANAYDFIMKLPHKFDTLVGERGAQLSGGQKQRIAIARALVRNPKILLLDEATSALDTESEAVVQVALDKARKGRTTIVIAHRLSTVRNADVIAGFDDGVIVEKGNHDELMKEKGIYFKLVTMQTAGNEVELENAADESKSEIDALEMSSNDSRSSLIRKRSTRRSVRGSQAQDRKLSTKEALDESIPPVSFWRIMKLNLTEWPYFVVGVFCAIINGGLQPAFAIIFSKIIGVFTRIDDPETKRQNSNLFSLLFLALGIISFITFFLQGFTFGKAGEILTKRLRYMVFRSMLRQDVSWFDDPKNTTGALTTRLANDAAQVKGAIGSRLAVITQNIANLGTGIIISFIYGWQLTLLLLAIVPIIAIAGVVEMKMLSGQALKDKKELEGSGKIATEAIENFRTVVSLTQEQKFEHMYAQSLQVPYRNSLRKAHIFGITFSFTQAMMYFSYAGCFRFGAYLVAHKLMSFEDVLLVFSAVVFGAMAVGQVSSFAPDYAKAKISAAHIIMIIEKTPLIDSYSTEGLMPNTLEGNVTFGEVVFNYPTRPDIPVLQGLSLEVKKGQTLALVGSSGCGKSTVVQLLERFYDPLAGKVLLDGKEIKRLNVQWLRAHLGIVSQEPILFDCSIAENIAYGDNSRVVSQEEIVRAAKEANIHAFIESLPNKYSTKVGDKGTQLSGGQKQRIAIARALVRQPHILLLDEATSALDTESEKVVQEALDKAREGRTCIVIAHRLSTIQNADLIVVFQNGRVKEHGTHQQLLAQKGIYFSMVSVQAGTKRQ

| Compound | IC50 [1] [µM] | other results |
| --- | --- | --- |
| COc1cc2c(cc1OC)CN(CCc1ccc(NC(=O)c3ccnc4ccccc34)cc1)CC2 | 36.3 |  |
| COc1cc2c(cc1OC)CN(CCc1ccc(NC(=O)C3Oc4ccccc4O3)cc1)CC2 | 15.1 | IC50 [2]: 1.41 µM |
| O=C(Nc1ccccc1C(=O)Nc1ccc(CCN2CCc3ccccc3C2)cc1)c1cnc2ccccc2c1 | 1 | IC50 [3]: 0.676 µM; IC50 [4]: 0.832 µM; Activity [5]: Active |
| COc1cc2c(cc1OC)CN(CCc1ccc(NC(=O)c3ccccc3N)cc1)CC2 | 85.1 |  |
| COc1cc2c(cc1OC)CN(CCc1ccc(NC(=O)c3ccc4ncccc4c3)cc1)CC2 | 14.5 |  |
| COc1ccc([C@@H]2Sc3ccccc3N(CCN(C)C)C(=O)[C@@H]2OC(C)=O)cc1 [DILTIAZEM] | 851 |  |
| Nc1ccccc1C(=O)Nc1ccc(CCN2CCc3ccccc3C2)cc1 | 74.1 |  |
| COc1cc2c(cc1OC)CN(CCc1ccc(NC(=O)c3ccccc3NC(=O)c3cnc4ccccc4c3)cc1)CC2 | 5.01 |  |
| COc1cc2c(cc1OC)CN(CCc1ccc(NC(=O)c3ccccc3NC(=O)c3ccccc3)cc1)CC2 | 3.98 |  |
| COC(=O)[C@H]1[C@H]2C[C@@H]3c4[nH]c5cc(OC)ccc5c4CCN3C[C@H]2C[C@@H](OC(=O)c2cc(OC)c(OC)c(OC)c2)[C@@H]1OC [RESERPINE] | 26.3 |  |
| COc1cc2c(cc1OC)CN(CCc1ccc(NC(=O)c3ccccc3NC(=O)c3ccc(C)cc3)cc1)CC2 | 3.89 |  |
| COc1cc2c(cc1OC)CN(CCc1ccc(NC(=O)c3cnc4ccccc4c3)cc1)CC2 | 24 |  |
| COc1cc2c(cc1OC)CN(CCc1ccc(NC(=O)c3ccccc3Br)cc1)CC2 | 21.9 |  |
| Nc1ccc(C(=O)Nc2ccc(CCN3CCc4ccccc4C3)cc2)cc1 | 77.6 |  |
| COc1cc2c(cc1OC)CN(CCc1ccc(NC(=O)c3cc4ccccc4cn3)cc1)CC2 | 6.03 |  |
| O=C(Nc1ccc(CCN2CCc3ccccc3C2)cc1)c1cnc2ccccc2c1 | 5.01 |  |
| COc1cc2c(cc1OC)CN(CCc1ccc(NC(=O)c3ccc(Br)cc3)cc1)CC2 | 11.5 |  |
| COc1cc2c(cc1OC)CN(CCc1ccc(NC(=O)c3ccc([N+](=O)[O-])cc3)cc1)CC2 | 7.59 |  |

| Compound | IC50 [1] [µM] | other results |
| --- | --- | --- |
| COc1cc2c(cc1OC)CN(CCc1ccc(NC(=O)c3ccccc3)cc1)CC2 | 24.5 | IC50 [2]: 4.79 µM |
| COc1cc2c(cc1OC)CN(CCc1ccc(NC(=O)c3cccc4ccccc34)cc1)CC2 | 12.9 |  |
| COc1ccc(C(=O)Nc2ccccc2C(=O)Nc2ccc(CCN3CCc4cc(OC)c(OC)cc4C3)cc2)cc1OC | 2.09 |  |
| COC(=O)C1=C(C)NC(C)=C(C(=O)OCCN(C)Cc2ccccc2)C1c1cccc([N+](=O)[O-])c1 (stereo unspecified) [NICARDIPINE] | 16.6 |  |
| COc1cc2c(cc1OC)CN(CCc1ccc(NC(=O)c3cccc(Br)c3)cc1)CC2 | 22.9 |  |
| COc1ccc(C(=O)Nc2ccc(CCN3CCc4cc(OC)c(OC)cc4C3)cc2)cc1OC | 47.9 |  |
| COc1cc2c(cc1OC)CN(CCc1ccc(NC(=O)c3cnc4ccccc4n3)cc1)CC2 | 6.03 |  |
| COc1cc2c(cc1OC)CN(CCc1ccc(NC(=O)c3cccnc3)cc1)CC2 | 44.7 |  |
| COc1cc2c(cc1OC)CN(CCc1ccc(NC(=O)c3ccc(N)cc3)cc1)CC2 | 263 |  |
| O=C(Nc1ccc(CCN2CCc3ccccc3C2)cc1)c1ccc([N+](=O)[O-])cc1 | 6.61 |  |
| O=C(Nc1ccc(CCN2CCc3ccccc3C2)cc1)c1ccccc1[N+](=O)[O-] | 79.4 |  |
| CC(=O)[C@H]1CC[C@H]2[C@@H]3CCC4=CC(=O)CC[C@]4(C)[C@H]3CC[C@]12C [PROGESTERONE] | 126 |  |
| COc1cc2c(cc1OC)CN(CCc1ccc(NC(=O)c3cc(OC)c(OC)cc3NC(=O)c3cnc4ccccc4c3)cc1)CC2 | 1.45 | IC50 [2]: 0.0724 µM |
| COc1cc2c(cc1OC)CN(CCc1ccc(NC(=O)c3cc(OC)c(OC)cc3[N+](=O)[O-])cc1)CC2 | 64.6 |  |
| COc1cc2c(cc1OC)CN(CCc1ccc(NC(=O)c3ccc4ccccc4c3)cc1)CC2 | 7.24 |  |
| COc1cc2c(cc1OC)CN(CCc1ccc(NC(=O)c3ccccc3[N+](=O)[O-])cc1)CC2 | 110 |  |
| COc1ccc(CCN(C)CCCC(C#N)(c2ccc(OC)c(OC)c2)C(C)C)cc1OC (stereo unspecified) | 525 |  |
